Source: paper PMC6268586, “Effect of Wine and Vinegar Processing of Rhizoma Corydalis on the Tissue Distribution of Tetrahydropalmatine, Protopine and Dehydrocorydaline in Rats” (Molecules, 2012)
Read-outs that look alike come from different tables or passages of the source.

Test: Tissue distribution of THP, DHC and protopine in rat tissues after gastric gavage administration (HPLC-UV, non-compartmental analysis)
Assay type: in vivo, Wistar male rats
Settings: for AUC(0-t) / Cmax / MRT / Tmax: male, Wistar, po, 6.45 mg/kg; for AUC(0-t): read-out: AUC0–24 h of THP; for Cmax: read-out: Cmax of THP; for MRT: read-out: MRT of THP; for Tmax: read-out: Tmax of THP
Description: The experimental protocol was approved by the University's Animal Ethics Committee. […] Rats had unlimited access to water. Standard food was given until 12 h before the experiments. Rhizoma Corydalis was processed according to Pharmacopoeia of Chinese Medicine and National Guideline of Traditional Chinese Medicinal Plants Processing. Briefly, fresh Rhizoma Corydalis was boiled in water till the pith turn light brown color. Cooked rhizome was sliced into pieces (4 mm, diameter) and dried at 25 °C. Dried slices were mixed with edible vinegar (100:20, rhizome/vinegar, w/v) or yellow wine (100:10, rhizome/wine, w/v) and the slices allowed to completely absorb the vinegar or wine. The soaked slices were then stir-fried in a metallic pan over a low flame till they were completely dry. The processed Rhizoma Corydalis was added with 70% ethanol (1:30 w/v) and sonicated for 1 h at room temperature. The extract was then concentrated to remove the ethanol residue and stored at 4 °C for further use. […] The ethanol extract of the unprocessed Rhizoma Corydalis and THP, DHC and protopine pure compound were used as the controls. Three hundred and sixty healthy rats were used in total and are divided into six groups (Group 1-6, sixty rats per group). Drugs were administrated by gastric gavage method. In order to keep the dose of THP, DHC and protopine constant in each group, the amount of ethanol extract of Rhizoma Corydalis administrated was normalized based on the dose of protopine pure compound used. The dose of THP and DHC pure compound administrated was same with that in the ethanol extract of Rhizoma Corydalis. The details were listed below. […] Rats were administrated with the 70% ethanol extract of unprocessed Rhizoma Corydalis at a dose of 17.75 g extract/kg body weight. […] Rats received the extract of vinegar-processed Rhizoma Corydalis at a dose of 15 g extract/kg rat body weight. Group 3: Rats were administrated with the extract of wine processed Rhizoma Corydalis at a dose of 15.78 g extract/kg body weight. […] Rats received THP pure compound at a dose of 6.45 mg/kg body weight. Group 6: Rats were administrated 26.10 mg of DHC pure compound/kg body weight. […] Brian tissue was further dissected into six parts: cerebrum, cerebellum, diencephalons, brain stem, hippocampus and striatum. All the tissue samples were rinsed with ice-old saline and stored at -20 °C until extraction. Tissue samples were homogenized in three volumes of ice-cold biological saline and centrifuged for 10 min at 10,000 g and 4 °C. An aliquot of the supernatant (0.5 mL) was collected. Liquid-liquid extraction was used to extract THP, DHC and protopine. One hundred microliter of 1.0 μg/mL nuciferin (internal standard) was mixed with 0.5 mL aliquots of the supernatant. […] The supernatant was evaporated completely under the nitrogen stream in a 60 °C water bath. The residue was redissolved in 100 μL of methanol. A CoMetro HPLC system (CoMetro Technology Ltd, South […], NJ, USA) with 6000 PVW detector UV-VIS detector was used. […] Ltd., Liaoning, China). Other chromatographic conditions were: column temperature, 35 °C; mobile phase, acetonitrile-0.1% phosphoric acid (pH 3.0) (30:70 v/v); flow rate, 1 mL/min; wavelength, 280 nm. Pharmacokinetic parameters were estimated by non-compartmental analysis using Equiv Test/PK (Statistical Solutions Ltd., Saugus, MA, USA). The maximum concentration (Cmax) and the time to reach the maximum concentration (Tmax) were directly obtained from the observed value. All data were represented as mean ± SD. Comparison of values between groups was performed using one-way ANOVA followed by Tukey's test for comparisons among four groups.

## COc1cc2c(cc1OC)[C@@H]1Cc3ccc(OC)c(OC)c3CN1CC2 [THP, tetrahydropalmatine]
Rat brainstem
  AUC(0-t): 1490 ± 340 ng·h/mL
  Cmax: 370 ± 110 ng/mL
  MRT: 7.53 ± 0.26 h
  Tmax: 0.25 h
Rat cerebellum
  AUC(0-t): 990 ± 220 ng·h/mL
  Cmax: 150 ± 30 ng/mL
  MRT: 9.2 ± 0.61 h
  Tmax: 0.26 ± 0.02 h
Rat cerebrum
  AUC(0-t): 860 ± 200 ng·h/mL
  Cmax: 250 ± 72 ng/mL
  MRT: 8 ± 0.25 h
  Tmax: 0.26 ± 0.01 h
Rat diencephalons
  AUC(0-t): 1670 ± 380 ng·h/mL
  Cmax: 460 ± 130 ng/mL
  MRT: 7.7 ± 0.28 h
  Tmax: 0.27 ± 0.04 h
Rat heart
  AUC(0-t): 1430 ± 320 ng·h/mL
  Cmax: 600 ± 180 ng/mL
  MRT: 4.83 ± 0.13 h
  Tmax: 0.25 h
Rat hippocampus
  AUC(0-t): 1790 ± 400 ng·h/mL
  Cmax: 470 ± 130 ng/mL
  MRT: 7.04 ± 0.23 h
  Tmax: 0.24 ± 0.05 h
Rat kidney
  AUC(0-t): 6270 ± 1430 ng·h/mL
  Cmax: 2050 ± 570 ng/mL
  MRT: 4.37 ± 0.1 h
  Tmax: 0.33 ± 0.09 h
Rat liver
  AUC(0-t): 5570 ± 2600 ng·h/mL
  Cmax: 7840 ± 1740 ng/mL
  MRT: 3.99 ± 0.08 h
  Tmax: 0.21 ± 0.01 h
Rat lung
  AUC(0-t): 5930 ± 1320 ng·h/mL
  Cmax: 1530 ± 450 ng/mL
  MRT: 5.34 ± 0.15 h
  Tmax: 0.26 ± 0.08 h
Rat spleen
  AUC(0-t): 3270 ± 740 ng·h/mL
  Cmax: 1540 ± 450 ng/mL
  MRT: 4.34 ± 0.09 h
  Tmax: 0.23 h
Rat striatum
  AUC(0-t): 2470 ± 570 ng·h/mL
  Cmax: 720 ± 210 ng/mL
  MRT: 7.69 ± 0.26 h
  Tmax: 0.21 ± 0.03 h
Rat tissues
  elimination of THP from the tissues: rarely found after 8 h
  time after administration at which THP was detected in all the tissues examined: ≤ 5 min
